These results are taken from patent US10059688B2, “Protein tyrosine kinase modulators and methods of use” (BETTA PHARMACEUTICALS CO., LTD., priority 2013, dated 2018).

Assay [1] has as its system A549 (EGFR WT) NSCLC cells. As to the kind of experiment: Cell proliferation assay (MTS cell viability). Format: cell-based. The following applies: Homo sapiens, 72 h; A549 cells, 3 days of exposure, MTS.
Method: (§1) Effects of test compounds on in vitro proliferation were measured by MTS cell viability assay.
A549 cells were maintained in Ham's F12K medium (Gibco) supplemented with 10% FBS, 100 units/mL penicillin, 100 units/mL streptomycin, and 2 mM glutamine.
(§2) Prepare test compounds in each well with a final medium volume of 200 μl;
Incubate for 3 days of exposure;
(§3) Prepare reagents following the instructions in the Cell Proliferation Assay kit (Promega);
(§4) Change to serum-free medium with a final volume of 100 l/well. Prepare a set of wells with medium only for background subtraction;
(§5) Add 20 μl MTS solution containing PMS to each well (final concentration of MTS will be 0.33 mg/ml);
(§6) Incubate 1 to 4 hours at 37° C. in a humidified, 5% CO2 atmosphere.
(§7) Record absorbance at 490 nm using VICTOR™ X5 plate reader (PerkinElmer).
(§8) All experimental points were set up in three wells and all experiments were repeated at least three times.
Assay [2] relates to H1975 (EGFR L858R/T790M) NSCLC cells. As to the kind of experiment: Cell proliferation assay (MTS cell viability). Format: cell-based. The following applies: Homo sapiens, NCI-H1975, 72 h; H1975 cells, 3 days of exposure, MTS.
Assay [3] deals with HCC827 (EGFR Del) NSCLC cells. As to the kind of experiment: Cell proliferation assay (MTS cell viability). The format is cell-based. Particulars: Homo sapiens, 72 h; HCC827 cells, 3 days of exposure, MTS.
Method: as §1, §2
Incubate for 3 days of exposure;
as §3, §4, §5, §6, §7, §8
Assay [4] concerns the target ALK (h) (Homo sapiens (Human), UniProt Q9UM73). Description: Kinase assay, single dose inhibition (Millipore, 33P-ATP filter binding). Format: biochemical. The following applies: 0.1 μM test compound, 10 μM ATP, remaining activity relative to DMSO control = 100%; for remaining activity at 0.1 µM: 40 min.
Method: (§9) Assay conditions included 10 μM ATP and 100 nM test compounds.
(§10) All reactions are initiated by the addition of the MgATP mix. After incubation for 40 minutes at room temperature, the reaction is stopped by the addition of 3% phosphoric acid solution. 10 μL of the reaction is then spotted onto a P30 filtermat and washed three times for 5 minutes in 75 mM phosphoric acid and once in methanol prior to drying and scintillation counting. This assay is performed by Millipore. The experiment is carried out in duplicate. The value for the control sample (DMSO) was set to 100%, and the values for the compound-treated samples were expressed as activity relative to the control sample.
The target in assay [5] is EGFR (h) (Homo sapiens (Human), UniProt P00533). The assay is described as above. Format: biochemical. Particulars: 0.1 μM test compound, 10 μM ATP; remaining activity relative to DMSO control = 100%.
EGFR (h), sequence (P00533 25-1210): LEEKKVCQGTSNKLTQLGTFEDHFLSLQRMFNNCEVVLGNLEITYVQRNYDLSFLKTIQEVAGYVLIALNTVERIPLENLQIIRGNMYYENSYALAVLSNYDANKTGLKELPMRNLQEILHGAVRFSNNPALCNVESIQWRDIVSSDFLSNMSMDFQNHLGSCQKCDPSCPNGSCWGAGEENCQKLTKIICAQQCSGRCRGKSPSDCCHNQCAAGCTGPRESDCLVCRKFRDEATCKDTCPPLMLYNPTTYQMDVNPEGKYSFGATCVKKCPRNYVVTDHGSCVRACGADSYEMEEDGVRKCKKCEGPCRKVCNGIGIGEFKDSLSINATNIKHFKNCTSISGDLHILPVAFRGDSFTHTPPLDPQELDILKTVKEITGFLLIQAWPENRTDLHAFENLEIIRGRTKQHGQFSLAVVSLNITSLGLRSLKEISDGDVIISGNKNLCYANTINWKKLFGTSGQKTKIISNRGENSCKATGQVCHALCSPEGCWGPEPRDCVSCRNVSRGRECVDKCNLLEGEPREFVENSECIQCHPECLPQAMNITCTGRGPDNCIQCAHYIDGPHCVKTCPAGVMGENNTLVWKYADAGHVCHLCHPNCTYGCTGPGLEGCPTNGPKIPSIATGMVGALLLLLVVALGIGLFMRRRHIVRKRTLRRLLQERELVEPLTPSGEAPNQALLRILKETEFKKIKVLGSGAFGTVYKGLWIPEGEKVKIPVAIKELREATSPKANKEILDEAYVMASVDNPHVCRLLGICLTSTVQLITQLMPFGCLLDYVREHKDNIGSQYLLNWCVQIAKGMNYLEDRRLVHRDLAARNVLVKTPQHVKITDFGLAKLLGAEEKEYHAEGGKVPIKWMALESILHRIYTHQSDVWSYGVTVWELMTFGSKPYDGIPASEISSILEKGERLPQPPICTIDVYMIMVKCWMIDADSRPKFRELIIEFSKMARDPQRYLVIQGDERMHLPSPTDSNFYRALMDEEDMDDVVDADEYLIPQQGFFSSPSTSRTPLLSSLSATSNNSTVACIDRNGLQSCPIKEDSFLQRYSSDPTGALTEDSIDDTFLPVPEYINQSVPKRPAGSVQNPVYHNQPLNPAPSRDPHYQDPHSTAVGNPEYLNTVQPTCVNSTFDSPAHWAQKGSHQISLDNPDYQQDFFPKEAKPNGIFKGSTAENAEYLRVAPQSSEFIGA
Method: as §9, §10
The target in assay [6] is EGFR (L858R) (h) (Homo sapiens (Human), UniProt P00533, L858R). Described as above. Format: biochemical. Particulars: 0.1 μM test compound, 10 μM ATP; remaining activity relative to DMSO control = 100%.
EGFR (L858R) (h), sequence (P00533 25-1210 L858R): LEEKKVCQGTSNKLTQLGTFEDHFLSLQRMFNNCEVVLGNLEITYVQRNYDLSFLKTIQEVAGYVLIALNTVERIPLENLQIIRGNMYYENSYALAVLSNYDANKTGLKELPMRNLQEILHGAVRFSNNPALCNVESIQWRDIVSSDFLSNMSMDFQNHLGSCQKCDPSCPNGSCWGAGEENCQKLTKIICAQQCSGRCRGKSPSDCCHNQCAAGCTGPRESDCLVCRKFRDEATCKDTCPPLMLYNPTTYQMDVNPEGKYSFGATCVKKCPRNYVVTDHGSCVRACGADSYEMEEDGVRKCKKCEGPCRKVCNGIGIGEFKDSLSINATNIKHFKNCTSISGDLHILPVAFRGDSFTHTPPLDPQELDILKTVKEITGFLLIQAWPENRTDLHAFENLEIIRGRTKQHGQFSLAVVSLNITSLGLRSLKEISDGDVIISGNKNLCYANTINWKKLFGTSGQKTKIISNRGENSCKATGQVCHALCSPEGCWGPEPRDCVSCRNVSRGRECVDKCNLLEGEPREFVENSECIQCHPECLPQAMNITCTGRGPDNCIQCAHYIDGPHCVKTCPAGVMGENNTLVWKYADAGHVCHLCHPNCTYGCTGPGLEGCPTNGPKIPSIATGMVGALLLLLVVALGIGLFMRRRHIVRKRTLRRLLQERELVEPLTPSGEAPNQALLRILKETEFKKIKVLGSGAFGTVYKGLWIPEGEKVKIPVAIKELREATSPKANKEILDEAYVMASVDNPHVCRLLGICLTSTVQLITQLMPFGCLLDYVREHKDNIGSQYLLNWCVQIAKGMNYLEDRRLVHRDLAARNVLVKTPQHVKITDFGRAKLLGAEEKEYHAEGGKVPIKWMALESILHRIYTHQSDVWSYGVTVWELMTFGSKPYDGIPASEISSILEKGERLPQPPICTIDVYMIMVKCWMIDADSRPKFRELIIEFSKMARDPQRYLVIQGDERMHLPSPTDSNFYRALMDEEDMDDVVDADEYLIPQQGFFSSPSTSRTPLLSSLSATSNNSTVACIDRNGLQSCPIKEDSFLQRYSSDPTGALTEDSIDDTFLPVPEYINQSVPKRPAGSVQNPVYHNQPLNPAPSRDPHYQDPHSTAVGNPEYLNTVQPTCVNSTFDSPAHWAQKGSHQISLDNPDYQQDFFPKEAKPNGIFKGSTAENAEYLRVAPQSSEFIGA
Assay [7] addresses EGFR (T790M) (h) (Homo sapiens (Human), UniProt P00533, T790M). The assay is described as above. The format is biochemical. Particulars: 0.1 μM test compound, 10 μM ATP; remaining activity relative to DMSO control = 100%.
Assay [8] has as its target EGFR (T790M, L858R) (h) (Homo sapiens (Human), UniProt P00533, L858R/T790M). The description is as above. The format is biochemical. Particulars: 0.1 μM test compound, 10 μM ATP; remaining activity relative to DMSO control = 100%.
Method: as §9, §10

EGFR (T790M) (h), sequence (P00533 25-1210 T790M): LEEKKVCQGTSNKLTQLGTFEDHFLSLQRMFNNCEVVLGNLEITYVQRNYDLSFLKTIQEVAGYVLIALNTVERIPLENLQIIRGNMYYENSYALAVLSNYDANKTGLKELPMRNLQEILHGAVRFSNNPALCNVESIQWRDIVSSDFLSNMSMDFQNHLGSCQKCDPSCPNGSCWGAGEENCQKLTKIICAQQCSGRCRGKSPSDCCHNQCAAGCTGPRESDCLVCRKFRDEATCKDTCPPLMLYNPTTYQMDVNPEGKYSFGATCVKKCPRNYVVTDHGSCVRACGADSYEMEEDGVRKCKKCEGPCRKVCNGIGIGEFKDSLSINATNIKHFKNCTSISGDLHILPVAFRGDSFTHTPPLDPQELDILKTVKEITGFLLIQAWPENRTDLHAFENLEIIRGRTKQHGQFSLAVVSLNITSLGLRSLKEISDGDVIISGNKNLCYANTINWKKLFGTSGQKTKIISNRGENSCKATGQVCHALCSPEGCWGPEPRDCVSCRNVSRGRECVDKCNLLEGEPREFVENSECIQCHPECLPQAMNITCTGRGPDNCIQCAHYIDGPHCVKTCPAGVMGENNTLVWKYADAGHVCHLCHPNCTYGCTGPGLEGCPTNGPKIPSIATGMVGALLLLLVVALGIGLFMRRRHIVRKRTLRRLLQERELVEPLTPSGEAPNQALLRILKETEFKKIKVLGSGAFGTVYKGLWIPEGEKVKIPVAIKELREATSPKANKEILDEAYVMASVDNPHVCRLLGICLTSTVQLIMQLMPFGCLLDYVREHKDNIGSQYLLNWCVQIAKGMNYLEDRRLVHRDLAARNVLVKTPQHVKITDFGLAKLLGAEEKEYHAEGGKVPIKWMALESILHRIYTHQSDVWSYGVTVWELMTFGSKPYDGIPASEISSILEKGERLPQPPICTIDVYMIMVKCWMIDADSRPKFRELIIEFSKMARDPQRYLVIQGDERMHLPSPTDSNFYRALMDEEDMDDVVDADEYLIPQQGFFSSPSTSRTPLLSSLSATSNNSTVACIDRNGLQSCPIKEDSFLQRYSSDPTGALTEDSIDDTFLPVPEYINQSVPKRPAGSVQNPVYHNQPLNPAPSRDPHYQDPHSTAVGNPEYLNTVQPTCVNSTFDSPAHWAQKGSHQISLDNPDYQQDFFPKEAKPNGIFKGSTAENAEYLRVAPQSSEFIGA
EGFR (T790M, L858R) (h), sequence (P00533 25-1210 T790M/L858R): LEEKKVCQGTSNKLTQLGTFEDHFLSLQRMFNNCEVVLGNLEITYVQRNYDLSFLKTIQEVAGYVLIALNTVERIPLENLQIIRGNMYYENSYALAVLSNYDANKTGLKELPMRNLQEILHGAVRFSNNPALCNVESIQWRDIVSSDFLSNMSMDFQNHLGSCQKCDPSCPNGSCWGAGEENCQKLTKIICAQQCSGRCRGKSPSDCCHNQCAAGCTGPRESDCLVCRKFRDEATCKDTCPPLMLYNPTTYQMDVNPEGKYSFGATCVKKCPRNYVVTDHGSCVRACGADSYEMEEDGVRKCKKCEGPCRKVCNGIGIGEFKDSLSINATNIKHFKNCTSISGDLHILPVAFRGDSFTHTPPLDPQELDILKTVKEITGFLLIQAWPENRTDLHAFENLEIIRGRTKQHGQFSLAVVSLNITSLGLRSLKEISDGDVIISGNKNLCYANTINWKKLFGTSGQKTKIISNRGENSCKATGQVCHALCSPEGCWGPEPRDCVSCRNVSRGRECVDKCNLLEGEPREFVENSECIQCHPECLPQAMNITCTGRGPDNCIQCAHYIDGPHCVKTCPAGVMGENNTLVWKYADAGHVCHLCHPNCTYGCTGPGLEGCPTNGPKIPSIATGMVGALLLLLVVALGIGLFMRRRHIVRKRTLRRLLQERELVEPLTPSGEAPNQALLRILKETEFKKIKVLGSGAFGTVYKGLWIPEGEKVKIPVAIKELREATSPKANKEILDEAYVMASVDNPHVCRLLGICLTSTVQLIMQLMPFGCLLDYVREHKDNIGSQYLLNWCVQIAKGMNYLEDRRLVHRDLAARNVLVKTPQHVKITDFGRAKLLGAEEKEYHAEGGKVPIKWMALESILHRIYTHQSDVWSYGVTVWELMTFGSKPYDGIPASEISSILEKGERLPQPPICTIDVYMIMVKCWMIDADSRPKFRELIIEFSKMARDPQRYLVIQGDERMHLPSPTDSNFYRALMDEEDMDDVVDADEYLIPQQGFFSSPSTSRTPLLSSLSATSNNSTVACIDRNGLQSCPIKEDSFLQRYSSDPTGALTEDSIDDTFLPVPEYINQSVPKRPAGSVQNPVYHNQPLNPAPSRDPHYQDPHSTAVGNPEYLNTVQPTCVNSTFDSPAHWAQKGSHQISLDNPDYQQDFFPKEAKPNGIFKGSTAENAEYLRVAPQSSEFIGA

Turning to `C=CC(=O)Nc1cccc(Oc2nc(Nc3ccc(N4CCN(C)CC4)cc3OC)ncc2Cl)c1` [WZ4002, reference compound], the IC50 (in general, the concentration needed to halve the response being measured) in assay [1] is over 3 µM.

Regarding `C=CC(=O)Nc1cccc(Nc2ncc(C(F)(F)F)c(Nc3ccccc3C(=O)C(N)=O)n2)c1` [Example 58, N-(3-(4-(2-(2-amino-2-oxoacetyl)phenylamino)-5-(trifluoromethyl)pyrimidin-2-ylamino)phenyl)acrylamide], the IC50 in assay [2] was 0.98 µM; in assay [3], 0.53 µM; in assay [1], 0.37 µM.

On to `C=CC(=O)Nc1cc(Nc2ncc(Cl)c(Nc3ccccc3C(=O)C(=O)NC)n2)c(F)cc1OC` [Example 68, N-(5-(5-chloro-4-(2-(2-(methylamino)-2-oxoacetyl)phenylamino)pyrimidin-2-ylamino)-4-fluoro-2-methoxyphenyl)acrylamide], for which the IC50 in assay [2] is 0.65 µM; in assay [3] it was 1.2 µM; in assay [1], over 3 µM.

`COc1cc(N2CCC(N(C)C)CC2)ccc1Nc1ncc(C(F)(F)F)c(Nc2ccccc2C(=O)C(=O)N2CCOCC2)n1` [Example 45, 1-(2-(2-(4-(4-(dimethylamino)piperidin-1-yl)-2-methoxyphenylamino)-5-(trifluoromethyl)pyrimidin-4-ylamino)phenyl)-2-morpholinoethane-1,2-dione]: the IC50 in assay [2], in assay [3] and in assay [1] was over 3 µM in each case.

As for `CNC(=O)C(=O)c1ccccc1Nc1nc(Nc2ccc(F)c(OC)c2)ncc1Cl` [Example 63, 2-(2-(5-chloro-2-(4-fluoro-3-methoxyphenylamino)pyrimidin-4-ylamino)phenyl)-N-methyl-2-oxoacetamide], the 50% inhibitory concentration (IC50) in assay [2] was 0.64 µM; in assay [3], over 3 µM; in assay [1], over 3 µM.

Regarding `COc1cc(N2CCN(C)CC2)ccc1Nc1ncc(C(F)(F)F)c(Nc2ccccc2C(=O)C(=O)N2CCOCC2)n1` [Example 43, 1-(2-(2-(2-methoxy-4-(4-methylpiperazin-1-yl)phenylamino)-5-(trifluoromethyl)pyrimidin-4-ylamino)phenyl)-2-morpholinoethane-1,2-dione], the IC50 in assay [2], in assay [3] and in assay [1] was over 3 µM each time.

`C=CC(=O)N1CCC(NC(=O)C(=O)c2ccccc2Nc2nc(Nc3ccc(F)c(OC)c3)ncc2Cl)CC1` [Example 59, N-(1-acryloylpiperidin-4-yl)-2-(2-(5-chloro-2-(4-fluoro-3-methoxyphenylamino)pyrimidin-4-ylamino)phenyl)-2-oxoacetamide]: the IC50 in assay [2] is 0.19 µM; in assay [3], over 3 µM; in assay [1] it was over 3 µM.

In the case of `C=CC(=O)Nc1cc(Nc2ncc(Cl)c(Nc3ccccc3C(=O)C(=O)N(C)C)n2)c(F)cc1OC` [Example 69, N-(5-(5-chloro-4-(2-(2-(dimethylamino)-2-oxoactyl)phenylamino)pyrimidin-2-ylamino)-4-fluoro-2-methoxyphenyl)acrylamide], the IC50 in assay [2] is 0.31 µM; in assay [3] it was 1.2 µM; in assay [1], over 3 µM.

Turning to `CNC(=O)C(=O)c1ccccc1Nc1nc(Nc2ccc(N3CCC(N(C)C)CC3)cc2OC)ncc1Cl` [Example 16, 2-(2-((5-chloro-2-((4-(4-(dimethylamino)piperidin-1-yl)-2-methoxyphenyl)amino)pyrimidin-4-yl)amino)phenyl)-N-methyl-2-oxoacetamide], the values for the IC50 in assay [2], in assay [3] and in assay [1] were 1.13 µM, 0.9 µM and over 3 µM, respectively.

Take `COc1cc(N2CCC(N(C)C)CC2)ccc1Nc1ncc(Cl)c(Nc2ccccc2C(=O)C(=O)NO)n1` [Example 3, 2-(2-(5-chloro-2-(4-(4-(dimethylamino)piperidin-1-yl)-2-methoxyphenylamino)pyrimidin-4-ylamino)phenyl)-N-hydroxy-2-oxoacetamide]: the IC50 is 0.84 µM in assay [2], 0.94 µM in assay [3] and over 3 µM in assay [1].

On to `COc1cc(N2CCN(C(C)=O)CC2)ccc1Nc1ncc(Cl)c(Nc2ccccc2C(=O)C(=O)N2CCOCC2)n1` [Example 42, 1-(2-(2-(4-(4-acetylpiperazin-1-yl)-2-methoxyphenylamino)-5-chloropyrimidin-4-ylamino)phenyl)-2-morpholinoethane-1,2-dione], for which the IC50 in assay [2], in assay [3] and in assay [1] was over 3 µM each time.

Turning to `C=CC(=O)Nc1cccc(Nc2ncc(Cl)c(Nc3ccccc3C(=O)C(=O)NC)n2)c1` [Example 57, N-(3-(5-chloro-4-(2-(2-(methylamino)-2-oxoacetyl)phenylamino)pyrimidin-2-ylamino)phenyl)acrylamide], the IC50 in assay [2] was 0.1 µM; in assay [3], 0.27 µM; in assay [1], over 3 µM.

For `COc1ccc(NC(=O)/C=C/CN2CCCCC2)cc1Nc1ncc(Cl)c(Nc2ccccc2C(=O)C(=O)N(C)C)n1` [Example 72, (E)-N-(3-(5-chloro-4-(2-(2-(dimethylamino)-2-oxoacetyl)phenylamino)pyrimidin-2-ylamino)-4-methoxyphenyl)-4-(piperidin-1-yl)but-2-enamide], in assay [4], the “Activity (control) % ALK (h)” value is on record as 14%. For the same compound, the “Activity (control) % EGFR (h)” value in assay [5] turned out to be 102%. In addition, the “Activity (control) % EGFR (L858R) (h)” value in assay [6] came to 28%. The “Activity (control) % EGFR (T790M) (h)” value in assay [7] came out at 54%. The “Activity (control) % EGFR (T790M, L858R) (h)” value in assay [8] stood at 9%.

Take `CNC(=O)C(=O)c1ccccc1Nc1nc(Nc2ccc(N3CCN(C)CC3)c(OC)c2)ncc1Cl` [Example 60, 2-(2-(5-chloro-2-(3-methoxy-4-(4-methylpiperazin-1-yl)phenylamino)pyrimidin-4-ylamino)phenyl)-N-methyl-2-oxoacetamide]: the IC50 in assay [2] stood at 0.15 µM; in assay [3], 0.87 µM; in assay [1], 2.08 µM.

As for `COc1cc(N2CCN(C)CC2)ccc1Nc1ncc(Cl)c(Nc2ccccc2C(=O)C(=O)N(C)C)n1` [Example 46, 2-(2-(5-chloro-2-(2-methoxy-4-(4-methylpiperazin-1-yl)phenylamino)pyrimidin-4-ylamino)phenyl)-N,N-dimethyl-2-oxoacetamide], the IC50 in assay [2] is 0.81 µM; in assay [3], 1.63 µM; in assay [1], over 3 µM.

With `COc1cc(Nc2ncc(Cl)c(Nc3ccccc3C(=O)C(=O)N(C)C)n2)ccc1F` [Example 62, 2-(2-(5-chloro-2-(4-fluoro-3-methoxyphenylamino)pyrimidin-4-ylamino)phenyl)-N,N-dimethyl-2-oxoacetamide], the IC50 was over 3 µM in assay [2], 2.33 µM in assay [3] and over 3 µM in assay [1].

`C=CC(=O)Nc1ccc(OC2CCOC2)c(Nc2ncc(Cl)c(Nc3ccccc3C(=O)C(=O)N(C)C)n2)c1` (centres unmarked) [Example 136, N-(3-(5-chloro-4-(2-(2-(dimethylamino)-2-oxoactyl)phenylamino)pyrimidin-2-ylamino)-4-(tetrahydrofuran-3-yloxy)phenyl)acrylamide]: the remaining activity (usually the signal under treatment as a percentage of the control signal) at 0.1 µM in assay [4] was 29%. Besides, the “Activity (control) % EGFR (h)” value in assay [5] stood at 99%. Besides, in assay [6], the “Activity (control) % EGFR (L858R) (h)” value turned out to be 104%. In addition, the “Activity (control) % EGFR (T790M) (h)” value in assay [7] is 92%. In assay [8], the “Activity (control) % EGFR (T790M, L858R) (h)” value came out at 54%.

As for `CCN(CC)C(=O)C(=O)c1ccccc1Nc1nc(Nc2ccc(N3CCN(C)CC3)c(OC)c2)ncc1Cl` [Example 130, 2-(2-(5-chloro-2-(3-methoxy-4-(4-methylpiperazin-1-yl)phenylamino)pyrimidin-4-ylamino)phenyl)-N,N-diethyl-2-oxoacetamide], the “Activity (control) % ALK (h)” value in assay [4] was 13%. The “Activity (control) % EGFR (h)” value in assay [5] came out at 113%. The “Activity (control) % EGFR (L858R) (h)” value in assay [6] worked out at 98%. In addition, the “Activity (control) % EGFR (T790M) (h)” value in assay [7] was 84%. Further, in assay [8], the “Activity (control) % EGFR (T790M, L858R) (h)” value came out at 22%.

As for `C/C=C/C(=O)Nc1ccc(OC)c(Nc2ncc(Cl)c(Nc3ccccc3C(=O)C(=O)N(C)C)n2)c1` [Example 70, (E)-N-(3-(5-chloro-4-(2-(2-(dimethylamino)-2-oxoacetyl)phenylamino)pyrimidin-2-ylamino)-4-methoxyphenyl)but-2-enamide], the values for the IC50 in assay [2], in assay [3] and in assay [1] were 0.31 µM, 1.05 µM and 1.37 µM, respectively.

In assay [4], `C=C(CN1CCOCC1)C(=O)Nc1ccc(OC)c(Nc2ncc(Cl)c(Nc3ccccc3C(=O)C(=O)N(C)C)n2)c1` [Example 41, N-(3-(5-chloro-4-(2-(2-(dimethylamino)-2-oxoacetyl)phenylamino)pyrimidin-2-ylamino)-4-methoxyphenyl)-2-(morpholinomethyl)acrylamide] returned a remaining activity at 0.1 µM of 21%. In addition, in assay [5], the “Activity (control) % EGFR (h)” value turned out to be 76%. Further, the “Activity (control) % EGFR (L858R) (h)” value in assay [6] is listed as 39%. In addition, the “Activity (control) % EGFR (T790M) (h)” value in assay [7] stood at 2%. For the same compound, the “Activity (control) % EGFR (T790M, L858R) (h)” value in assay [8] came out at 3%.

With `C=CC(=O)Nc1cc(Nc2ncc(Cl)c(Nc3ccccc3C(=O)C(=O)N(C)CCN(C)C)n2)ccc1OC` [Example 102, N-(5-(5-chloro-4-(2-(2-((2-(dimethylamino)ethyl)(methyl)amino)-2-oxoactyl)phenylamino)pyrimidin-2-ylamino)-2-methoxyphenyl)acrylamide], in assay [4], the “Activity (control) % ALK (h)” value was 5%. In assay [5], the “Activity (control) % EGFR (h)” value is 98%. In addition, in assay [6], the “Activity (control) % EGFR (L858R) (h)” value stood at 57%. In assay [7], the “Activity (control) % EGFR (T790M) (h)” value is reported as 40%. In addition, the “Activity (control) % EGFR (T790M, L858R) (h)” value in assay [8] came out at 5%.
